Measured values reported in US5834491A, “Bis(2-aminopyridine)s, preparation method therefor and use thereof for controlling parasitic infections” (priority 1994, dated 1998).
Counter-ions that a name gives are not always drawn. Like-named read-outs stand apart in the source and are kept apart here.

What was measured:
[1] = test system: Plasmodium falciparum; experiment: Antimalarial activity in vitro towards Plasmodium falciparum ([3H]hypoxanthine incorporation, infected human erythrocytes); type: cell-based; details: Erythrocyte, approximately 48 hours; for IC50 upper bound (active at tested concentration): Table I; for IC50: Table II
Procedure: Evaluation of the antimalarial activity in vitro is carried out according to the method of DESJARDINS, CANFIELD, HATNES and CHULAY (Antimicrob. Agents Chemother., 1979, 16, 710-718). A compound according to the invention is brought into contact for approximately 48 hours with human erythrocytes infected with Plasmodium falciparum. When a radioactive nucleic acid precursor, hypoxanthine, is added to the preparation, only erythrocytes infected with Plasmodium and not affected by the said compound incorporate this precursor. […] The results are presented in Table I below, in the form of an IC50 (or ED50) (concentration of compound capable of inhibiting in vitro the growth of the parasites by 50%).
The derivatives according to the above examples are tested at three concentrations, 100, 33 and 10 nanomolar.

[2] = test system: Plasmodium vinckei, petteri or chabaudi; experiment: Antimalarial activity in vivo, infected mice, 4 days; design: species or system petteri or chabaudi (male Swiss mice); details: ip, I.P., twice daily for 4 consecutive days
Procedure: This activity is measured according to the test described by PETERS W. (Chemotherapy and Drug resistance in Malaria, 1970). A compound according to the invention is administered for 4 consecutive days to mice infected beforehand with malaria using Plasmodium vinckei, petteri or chabaudi.
The said compound is dissolved in 0.9% aqueous NaCl solution or, where appropriate, in 10% aqueous gum arabic solution. The preparations are thus administered intraperitoneally or subcutaneously to male Swiss mice of average weight 30 to 40 g which have been infected beforehand intravenously with Plasmodium petterei or P. chabaudi (10^6 infected cells). The compound is administered twice daily for 4 consecutive days, the first injection being performed 2 hours after infestation, and the second 10 hours after. The parasitaemia is determined by means of a smear on the day following the end of the treatment.
The results are collated in Table II, in the form of an ED50 (dose of compound administered in vivo capable of a 50% inhibition of the growth of the parasites).

[3] = Semi-chronic toxicity in vivo; details: mouse, mice
[4] = test system: Babesia; details: cited from earlier work
[5] = test system: Babesia; details: cited from earlier work; remark: listed apart in the source
[6] = test system: Babesia; details: McColm 1984; cited from earlier work
[7] = test system: biosynthesis of phosphatidylcholine; experiment: Specificity towards phosphatidylcholine biosynthesis relative to other macromolecules (radiolabelled precursor incorporation); type: cell-based; details: relative to nucleic acids, proteins, other phospholipids
Procedure: Verification of the mechanism of action is carried out on the various derivatives according to the invention by studying the specific interference with phospholipid biosynthesis and measuring the biosynthesis of the different biomolecules, nucleic acids, proteins and phospholipids, on the basis of the incorporation of radiolabelled precursors, [^3 H]hypoxanthine (see above), [^3 H]isoleucine and [^3 H]choline. The specificity in the precise realm of phospholipid metabolism is determined by comparison with the effect on the incorporation of [^3 H]ethanolamine into phosphatidylethanolamine (Ancelin M. L., Vialettes F. and Vial H. J., 1991, Anal. Biochem., 199, 203-209).

[8] = cited from earlier work
[9] = cited from earlier work; remark: listed apart in the source
[10] = 33 nM, read-out: Plasmodium IC50 in vitro resp. at 33 nM
[11] = 100 nM, read-out: Plasmodium IC50 in vitro resp. 100 nM
[12] = ip, I.P., 2 injections daily for four days, read-out: Toxicity LD50 I.P.
[13] = po, P.O., semi-chronic, four days, read-out: Toxicity LD50 P.O.

## CCc1ccc(=N)n(CCCCCCCCCCCCn2cc(CC)ccc2=N)c1 [Example 25, 1,1'-(1,12-dodecanediyl)bis(5-ethyl-2(1H)-pyridinimine)]
[1]; [10]
  IC50 upper bound (active at tested concentration): < 33 nM
[1]; [11]
  IC50 upper bound (active at tested concentration): < 100 nM
[1]
  IC50: 3.8 nM
[2]
  ED50: > 5 mg/kg
[3]; [12]
  LD50: 7.5 mg/kg
[3]; [13]
  LD50: > 200 mg/kg

## Nc1ncnc2c1ccn2[C@@H]1O[C@H](CO)[C@@H](O)[C@H]1O [tubercidin]
[4]
  activity in vitro against Babesia: active in vitro
[5]
  results in vivo against Babesia: without, however, giving good results in vivo

## CO[C@H]1/C=C/O[C@@]2(C)Oc3c(C)c(O)c4c(O)c(cc(O)c4c3C2=O)NC(=O)/C(C)=C\C=C\[C@H](C)[C@H](O)[C@@H](C)[C@@H](O)[C@@H](C)[C@H](OC(C)=O)[C@@H]1C [rifamycin]
[6]
  resistance of Babesia: increased resistance

## Cc1ccn(CCCCCCCCCCCCn2ccc(C)cc2=N)c(=N)c1 [Example 1, 1,1'-(1,12-dodecanediyl)bis(4-methyl-2(1H)-pyridinimine) dihydrobromide]
[1]; [10]
  IC50 upper bound (active at tested concentration): < 33 nM
[1]; [11]
  IC50 upper bound (active at tested concentration): < 100 nM
[1]
  IC50: 0.5 nM
[2]
  ED50: 1.2 mg/kg
[3]; [12]
  LD50: 30 mg/kg
[3]; [13]
  LD50: 365 mg/kg
[7]
  specificity of action towards the biosynthesis of phosphatidylcholine, relative to the biosyntheses of the other macromolecules: best specificity of action towards the biosynthesis of phosphatidylcholine

## CN(C)C1C(=O)C(C(N)=O)=C(O)C2(O)C(=O)C3=C(O)c4c(O)cccc4C(C)(O)C3CC12 (centres unmarked) [tetracycline]
[4]
  activity in vitro against Babesia: active in vitro
[5]
  results in vivo against Babesia: without, however, giving good results in vivo

## C[C@@H]1CC[C@H]2[C@@H](C)C(=O)O[C@@H]3O[C@@]4(C)CC[C@@H]1[C@]32OO4 [artemisinine]
[8]
  water-solubility: low water-solubility

## C[C@H]1[C@@H](O)O[C@@H]2O[C@@]3(C)CC[C@H]4[C@H](C)CC[C@@H]1[C@@]24OO3 [dihydroartemisinine]
[8]
  water-solubility: low water-solubility
[9]
  half-life: short half-life

## Cc1cccn(CCCCCCCCCCCCn2cccc(C)c2=N)c1=N [Example 2, 1,1'-(1,12-dodecanediyl)bis(3-methyl-2(1H)-pyridinimine) dihydrobromide]
[1]; [10]
  IC50 upper bound (active at tested concentration): < 33 nM
[1]; [11]
  IC50 upper bound (active at tested concentration): < 100 nM
[1]
  IC50: 1.8 nM
[2]
  ED50: 3 mg/kg
[3]; [12]
  LD50: 20 mg/kg
[3]; [13]
  LD50: > 500 mg/kg

## Cc1ccc(=N)n(CCCCCCCCCCCCn2cc(C)ccc2=N)c1 [Example 3, 1,1'-(1,12-dodecanediyl)bis(5-methyl-2(1H)-pyridinimine) dihydrobromide]
[1]; [10]
  IC50 upper bound (active at tested concentration): < 33 nM
[1]; [11]
  IC50 upper bound (active at tested concentration): < 100 nM
[1]
  IC50: 0.5 nM
[2]
  ED50: 3 mg/kg
[3]; [12]
  LD50: 6.5 mg/kg
[3]; [13]
  LD50: > 300 mg/kg

## C[C@H]1[C@H](OC(=O)CCC(=O)O)O[C@@H]2O[C@@]3(C)CC[C@H]4[C@H](C)CC[C@@H]1[C@@]24OO3 [artesunate]
[8]
  water-solubility: low water-solubility
[9]
  half-life: short half-life

## Cc1cc(=N)n(CCCCCCCCCCCCn2cc(C)c(C)cc2=N)cc1C [Example 20, 1,1'-(1,12-dodecanediyl)bis(4,5-dimethyl-2(1H)-pyridinimine)]
[1]; [10]
  IC50 upper bound (active at tested concentration): < 33 nM
[1]; [11]
  IC50 upper bound (active at tested concentration): < 100 nM

## Cc1ccc(C)n(CCCCCCCCCCCCn2c(C)ccc(C)c2=N)c1=N [Example 19, 1,1'-(1,12-dodecanediyl)bis(3,6-dimethyl-2(1H)-pyridinimine)]
[1]; [10]
  IC50 upper bound (active at tested concentration): < 33 nM
[1]; [11]
  IC50 upper bound (active at tested concentration): < 100 nM

## CCc1cccn(CCCCCCCCCCCCn2cccc(CC)c2=N)c1=N [Example 23, 1,1'-(1,12-dodecanediyl)bis(3-ethyl-2(1H)-pyridinimine)]
[1]; [10]
  IC50 upper bound (active at tested concentration): > 33 nM
[1]; [11]
  IC50 upper bound (active at tested concentration): < 100 nM
[1]
  IC50: 7.2 nM
[2]
  ED50: > 5 mg/kg
[3]; [12]
  LD50: 23 mg/kg
[3]; [13]
  LD50: > 400 mg/kg

## CC[C@H]1OC(=O)C[C@@H](O)[C@H](C)[C@@H](O[C@@H]2O[C@H](C)[C@@H](O[C@H]3C[C@@](C)(O)[C@@H](O)[C@H](C)O3)[C@H](N(C)C)[C@H]2O)[C@@H](CC=O)C[C@@H](C)C(=O)/C=C/C(C)=C/[C@@H]1CO[C@@H]1O[C@H](C)[C@@H](O)[C@@H](OC)[C@H]1OC [tylosin]
[6]
  resistance of Babesia: increased resistance

## Cc1ccn(CCCCCCCCCCCCn2ccc(C)c(C)c2=N)c(=N)c1C [Example 17, 1,1'-(1,12-dodecanediyl)bis(3,4-dimethyl-2(1H)-pyridinimine)]
[1]; [10]
  IC50 upper bound (active at tested concentration): < 33 nM
[1]; [11]
  IC50 upper bound (active at tested concentration): < 100 nM

## N=c1ccc(Cl)cn1CCCCCCCCCCCCn1cc(Cl)ccc1=N [Example 9, 1,1'-(1,12-dodecanediyl)bis(5-chloro-2(1H)-pyridinimine) dihydrobromide]
[1]; [10]
  IC50 upper bound (active at tested concentration): < 33 nM
[1]; [11]
  IC50 upper bound (active at tested concentration): < 100 nM
[1]
  IC50: 1.4 nM
[2]
  ED50: 4 mg/kg
[3]; [12]
  LD50: 10 mg/kg
[3]; [13]
  LD50: > 200 mg/kg

## O=C1C(O)=C(CCCCCCCCC2CCCCC2)C(=O)c2ccccc21 [menoctone]
[4]
  activity in vitro against Babesia: active in vitro
[5]
  results in vivo against Babesia: without, however, giving good results in vivo

## Cc1cc(C)c(=N)n(CCCCCCCCCCCCn2cc(C)cc(C)c2=N)c1 [Example 18, 1,1'-(1,12-dodecanediyl)bis(3,5-dimethyl-2(1H)-pyridinimine)]
[1]; [10]
  IC50 upper bound (active at tested concentration): < 33 nM
[1]; [11]
  IC50 upper bound (active at tested concentration): < 100 nM

## CCO[C@H]1O[C@@H]2O[C@@]3(C)CC[C@H]4[C@H](C)CC[C@@H]([C@H]1C)[C@@]24OO3 [artether]
[8]
  water-solubility: low water-solubility
[9]
  half-life: short half-life

## N=c1c(OCc2ccccc2)cccn1CCCCCCCCCCCCn1cccc(OCc2ccccc2)c1=N [Example 6, 1,1'-(1,12-dodecanediyl)bis(3-phenylmethoxy-2(1H)-pyridinimine) dihydrobromide]
[1]; [10]
  IC50 upper bound (active at tested concentration): < 33 nM
[1]; [11]
  IC50 upper bound (active at tested concentration): < 100 nM

## gramicidin D
[6]
  resistance of Babesia: increased resistance

## CO[C@H]1O[C@@H]2O[C@@]3(C)CC[C@H]4[C@H](C)CC[C@@H]([C@H]1C)[C@@]24OO3 [artemether]
[8]
  water-solubility: low water-solubility
[9]
  half-life: short half-life
